The assay concerns the target TNFα (Homo sapiens (Human), UniProt P01375). Kind of assay: TNF induced HEK-Blue assay. It is filed as cell-based. The conditions noted are these: TNFα 0.5 ng/ml; HEK-Blue-CD40L cells, NF-κB-driven secreted alkaline phosphatase reporter; 18 h. On the procedure: TNF or CD40L-induced HEK-Blue Assay Test compounds serially diluted in DMSO were plated in an assay plate (Labcyte, Cat. #LP-0200) at final concentrations ranging from 0.004 μM to 25μM. TNFα (final concentration 0.5 ng/ml) or CD4OL (final concentration 30 ng/ml) in assay buffer [DMEM, 4.5 g/l glucose (Gibco, Cat. 21063-029), 10% FBS (Sigma, F4135), 1% Penicillin-Streptomycin (Gibco, Cat. 15140-122), 1% Anti-Anti (Gibco, Cat. 15240-112) and 2 mM L-glutamine (Gibco, Cat. 25030-081)] was then added to the assay plate. After a 30 minute pre-incubation at 37° C. and 5% CO2, HEK-Blue-CD40L cells (InvivoGen, Cat. Code hkb-cd40) containing a NF-κB-driven secreted alkaline phosphatase reporter gene were seeded into the assay plate at a density of 20,000 cells per well. This plate was then incubated for 18 h at 37° C. and 5% CO2. Secreted alkaline phosphatase expression was measured using QUANTI-Blue (InvivoGen, Cat. Code rep-qb1) according to manufacturer's specifications and the assay plate was read on a PerkinElmer Envision at 620 nm. Inhibition data for the test compound over a range of concentrations was plotted as percentage inhibition of the test compound (100%=maximum inhibition). IC50 values were determined after correcting for background [(sample read−mean of low control)/(mean of high control−mean of low control)] where by the low control is DMSO without stimulation and high control is DMSO with stimulation. The IC50 is defined as the concentration of test compound which produces 50% inhibition and was quantified using the 4 parameter logistic equation to fit the data.

Some results are limits rather than exact numbers.

TNFα, sequence (P01375 77-233): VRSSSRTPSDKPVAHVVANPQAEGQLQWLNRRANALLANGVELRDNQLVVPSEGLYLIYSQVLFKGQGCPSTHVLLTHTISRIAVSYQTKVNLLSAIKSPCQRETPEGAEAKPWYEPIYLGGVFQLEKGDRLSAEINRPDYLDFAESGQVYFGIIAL

The term IC50 denotes the concentration that gives 50% inhibition. Read a high IC50 as weaker potency in that assay. In turn, `O[C@@H]1CN[C@H](c2ccccc2OC(F)F)c2c1nc1ccc(-c3ccc(C4(O)CC4)cc3)nn21` (racemic) [Example 36, (+/−)-cis-9-(2-(difluoromethoxy)phenyl)-2-(4-(1-hydroxycyclopropyl)phenyl)-6,7,8,9-tetrahydropyrido [4′,3′:4,5]imidazo[1,2-b]pyridazin-6-ol] registered an IC50 of 1 to 10 µM.
`COc1ccccc1COc1ccc(-c2ccc3nc4c(n3n2)[C@@H](c2ccccc2OC(F)F)NC[C@H]4O)cc1` (racemic) [Example 37, (+/−)-cis-9-(2-(difluoromethoxy)phenyl)-2-(4-((2-methoxybenzyl)oxy)phenyl)-6,7,8,9-tetrahydropyrido[4′,3′:4,5]imidazo[1,2-b]pyridazin-6-ol] returned an IC50 of 1 to 10 µM.
Under `Cc1cc(F)ccc1[C@@H]1NC[C@@H](O)c2nc3ccc(-c4ccc(C(C)(C)O)cc4)nn3c21` (racemic) [Example 38, (+/−)-trans-9-(4-fluoro-2-methylphenyl)-2-(4-(2-hydroxypropan-2-yl)phenyl)-6,7,8,9-tetrahydropyrido[4′,3′:4,5]imidazo[1,2-b]pyridazin-6-ol] stands 1 to 10 µM.
Under `CC(C)(O)c1ccc(-c2ccc3nc4c(n3n2)[C@@H](c2ccc(F)cc2C(F)(F)F)NC[C@H]4O)cc1` (racemic) [Example 39, (+/−)-cis-9-(4-fluoro-2-(trifluoromethyl)phenyl)-2-(4-(2-hydroxypropan-2-yl)phenyl)-6,7,8,9-tetrahydropyrido[4′,3′:4,5]imidazo[1,2-b]pyridazin-6-ol] stands < 1 µM.
As for `CNS(=O)(=O)c1ccc(-c2ccc3nc4c(n3n2)[C@@H](c2ccccc2OC(F)F)NC[C@H]4O)cc1` (racemic) [Example 40, (+/−)-cis-4-(9-(2-(difluoromethoxy)phenyl)-6-hydroxy-6,7,8,9-tetrahydropyrido[4′,3′:4,5]imidazo[1,2-b]pyridazin-2-yl)-N-methylbenzenesulfonamide], the IC50 was 1 to 10 µM.
Under `CS(=O)(=O)c1ccc(-c2ccc3nc4c(n3n2)[C@@H](c2ccccc2OC(F)F)NC[C@H]4O)cc1` (racemic) [Example 41, (+/−)-cis-9-(2-(difluoromethoxy)phenyl)-2-(4-(methylsulfonyl)phenyl)-6,7,8,9-tetrahydropyrido[4′,3′:4,5]imidazo[1,2-b]pyridazin-6-ol] stands 1 to 10 µM; under `CC(C)(C)COc1ccc(-c2ccc3nc4c(n3n2)[C@@H](c2ccccc2OC(F)F)NC[C@H]4O)cc1` (racemic) [Example 42, (+/−)-cis-9-(2-(difluoromethoxy)phenyl)-2-(4-(neopentyloxy)phenyl)-6,7,8,9-tetrahydropyrido[4′,3′:4,5]imidazo[1,2-b]pyridazin-6-ol], < 1 µM; under `NS(=O)(=O)c1ccc(-c2ccc3nc4c(n3n2)[C@@H](c2ccccc2OC(F)F)NC[C@H]4O)cc1` (racemic) [Example 46, (+/−)-cis-4-(9-(2-(difluoromethoxy)phenyl)-6-hydroxy-6,7,8,9-tetrahydropyrido[4′,3′:4,5]imidazo[1,2-b]pyridazin-2-yl)benzenesulfonamide], 1 to 10 µM.
To `O=C(c1ccc(-c2ccc3nc4c(n3n2)[C@@H](c2ccccc2OC(F)F)NC[C@H]4O)cc1Cl)N1CCOCC1` (racemic) [Example 47, (+/−)-cis-(2-chloro-4-(9-(2-(difluoromethoxy)phenyl)-6-hydroxy-6,7,8,9-tetrahydropyrido[4′,3′:4,5]imidazo[1,2-b]pyridazin-2-yl)phenyl)(morpholino)methanone] belongs 1 to 10 µM.
`NC(=O)c1ccc(-c2ccc3nc4c(n3n2)[C@@H](c2ccccc2OC(F)F)NC[C@H]4O)cc1Cl` (racemic) [Example 48, (+/−)-cis-2-chloro-4-(9-(2-(difluoromethoxy)phenyl)-6-hydroxy-6,7,8,9-tetrahydropyrido[4′,3′:4,5]imidazo[1,2-b]pyridazin-2-yl)benzamide]: the IC50 lay in the range of 10 to 25 µM.
For `COc1ccc(-c2ccc3nc4c(n3n2)[C@H](c2ccccc2OC(F)F)NC[C@H]4O)cn1` (racemic) [Example 51, (+/−)-trans-9-(2-(difluoromethoxy)phenyl)-2-(6-methoxypyridin-3-yl)-6,7,8,9-tetrahydropyrido[4′,3′:4,5]imidazo[1,2-b]pyridazin-6-ol], the IC50 lay within 10 to 25 µM.
To `CC(C)(O)c1ccc(-c2ccc3nc4c(n3n2)[C@@H](c2cc(Cl)ccc2OC(F)F)NC[C@H]4O)cc1` (racemic) [Example 54, (+/−)-cis-9-(5-chloro-2-(difluoromethoxy)phenyl)-2-(4-(2-hydroxypropan-2-yl)phenyl)-6,7,8,9-tetrahydropyrido[4′,3′:4,5]imidazo[1,2-b]pyridazin-6-ol] belongs 1 to 10 µM; to `CC(C)(O)c1ccc(-c2ccc3nc4c(n3n2)[C@H](c2cc(Cl)ccc2C(F)(F)F)NC[C@H]4O)cc1` (racemic) [Example 55, (+/−)-trans-9-(5-chloro-2-(trifluoromethyl)phenyl)-2-(4-(2-hydroxypropan-2-yl)phenyl)-6,7,8,9-tetrahydropyrido [4′,3′:4,5]imidazo[1,2-b]pyridazin-6-ol], 1 to 10 µM; to `COc1ccc(Cl)cc1[C@@H]1NC[C@@H](O)c2nc3ccc(-c4ccc(C(C)(C)O)cc4)nn3c21` (racemic) [Example 56, (+/−)-trans-9-(5-chloro-2-methoxyphenyl)-2-(4-(2-hydroxypropan-2-yl)phenyl)-6,7,8,9-tetrahydropyrido[4′,3′:4,5]imidazo[1,2-b]pyridazin-6-ol], 1 to 10 µM.
To `CC(C)(O)c1ccc(-c2ccc3nc4c(n3n2)[C@H](c2ccccc2OC(F)F)OC[C@H]4O)cc1` (racemic) [Example 57, Rac-(6S,9S)-9-(2-(difluoromethoxy)phenyl)-2-(4-(2-hydroxypropan-2-yl)phenyl)-7,9-dihydro-6H-pyrano[4′,3′:4,5]imidazo[1,2-b]pyridazin-6-ol] belongs 1 to 10 µM.
Under `CC(C)(O)c1ccc(-c2ccc3nc4c(n3n2)[C@H](c2ccccc2OC(F)F)OC[C@@H]4O)cc1` (relative stereo) [Example 58, Cis-9-(2-(difluoromethoxy)phenyl)-2-(4-(2-hydroxypropan-2-yl)phenyl)-6,9-dihydro-7H-pyrano[4′,3′:4,5]imidazo[1,2-b]pyridazin-6-ol] stands < 1 µM.
Consider `CC(C)(O)c1ncc(-c2ccc3nc4c(n3n2)[C@H](c2ccccc2OC(F)F)OC[C@@H]4O)cn1` (relative stereo) [Example 61, Cis-9-(2-(difluoromethoxy)phenyl)-2-(2-(2-hydroxypropan-2-yl)pyrimidin-5-yl)-6,9-dihydro-7H-pyrano[4′,3′:4,5]imidazo[1,2-b]pyridazin-6-ol], for which the IC50 lay in the range of 10 to 25 µM.
To `CC(C)(O)c1ccc(-c2ccc3nc4c(n3n2)[C@H](c2ccccc2OC(F)F)NC[C@H]4O)cc1` [Example 5, (+/−)-Cis and trans-9-(2-(difluoromethoxy)phenyl)-2-(4-(2-hydroxypropan-2-yl)phenyl)-6,7,8,9-tetrahydropyrido[4′,3′:4,5]imidazo[1,2-b]pyridazin-6-ol] belongs 1 to 10 µM; to `CC(C)(O)c1ccc(-c2ccc3nc4c(n3n2)[C@H](c2ccccc2OC(F)F)NC[C@@H]4O)cc1` [Example 7, Cis-(6S,9S)-9-(2-(difluoromethoxy)phenyl)-2-(4-(2-hydroxypropan-2-yl)phenyl)-6,7,8,9-tetrahydropyrido[4′,3′:4,5]imidazo[1,2-b]pyridazin-6-ol], 1 to 10 µM.
Under `CC(C)(O)c1ccc(-c2ccc3nc4c(n3n2)C(c2ccccc2OC(F)F)NCC4F)cc1` [Example 12, cis-(1S,4S)-2-(4-(9-(2-(difluoromethoxy)phenyl)-6-fluoro-6,7,8,9-tetrahydropyrido[4′,3′:4,5]imidazo[1,2-b]pyridazin-2-yl)phenyl) propan-2-ol] stands < 1 µM.
To `CC(C)(O)c1ccc(-c2ccc3nc4c(n3n2)[C@@H](c2ccccc2OC(F)F)NC[C@H]4F)cc1` [Example 13, cis-(1R,4R)-2-(4-(9-(2-(difluoromethoxy)phenyl)-6-fluoro-6,7,8,9-tetrahydropyrido[4′,3′:4,5]imidazo[1,2-b]pyridazin-2-yl)phenyl)propan-2-ol] belongs < 1 µM.
The compound `CC(C)(O)c1ccc(-c2ccc3nc4c(n3n2)[C@H](c2ccccc2OC(F)F)NC[C@H]4O)cc1` [Example 14, trans-(6R,9S)-9-(2-(difluoromethoxy)phenyl)-2-(4-(2-hydroxypropan-2-yl)phenyl)-6,7,8,9-tetrahydropyrido[4′,3′:4,5]imidazo[1,2-b]pyridazin-6-ol] came in with an IC50 of 1 to 10 µM.
`CC(C)(O)c1ccc(-c2ccc3nc4c(n3n2)[C@@H](c2ccccc2OC(F)F)NC[C@@H]4O)cc1` [Example 15, trans-(6S,9R)-9-(2-(difluoromethoxy)phenyl)-2-(4-(2-hydroxypropan-2-yl)phenyl)-6,7,8,9-tetrahydropyrido [4′,3′:4,5]imidazo[1,2-b]pyridazin-6-ol] showed a half-inhibitory concentration (IC50) of 1 to 10 µM.

(Values after patent publication US10308652B2, “Tricyclic heterocyclic compounds useful as inhibitors of TNF” (BRISTOL-MYERS SQUIBB COMPANY, priority 2015, dated 2019).)
